According to publication PMC9768205, “Pharmacological targeting of the mitochondrial calcium-dependent potassium channel KCa3.1 triggers cell death and reduces tumor growth and metastasis in vivo” (Cell Death & Disease, 2022):

Target: T1, KCa3.1 (Homo sapiens, UniProt O15554)
T1 construct: gene KCNN4
Experiment: whole-cell perforated patch clamp, block of DC-EBIO/ionomycin-activated current
Format: cell-based

T1 sequence (O15554 whole entry): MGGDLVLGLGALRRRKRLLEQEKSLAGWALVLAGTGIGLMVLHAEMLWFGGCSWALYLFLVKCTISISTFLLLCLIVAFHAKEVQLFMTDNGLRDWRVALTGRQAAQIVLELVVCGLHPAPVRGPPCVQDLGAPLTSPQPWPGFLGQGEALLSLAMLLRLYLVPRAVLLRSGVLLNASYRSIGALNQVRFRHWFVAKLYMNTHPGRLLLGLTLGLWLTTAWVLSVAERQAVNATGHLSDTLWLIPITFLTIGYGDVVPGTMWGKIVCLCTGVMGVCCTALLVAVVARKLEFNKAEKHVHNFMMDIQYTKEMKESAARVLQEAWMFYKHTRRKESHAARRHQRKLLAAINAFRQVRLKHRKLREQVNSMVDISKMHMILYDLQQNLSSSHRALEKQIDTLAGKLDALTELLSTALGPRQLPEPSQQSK

IC50: ~2 µM
SMILES: Clc1ccccc1C(c1ccccc1)(c1ccc(CCC[P+](c2ccccc2)(c2ccccc2)c2ccccc2)cc1)n1cccn1 (stereo not shown) [mitoTRAM-34, (3-(4-((2-chlorophenyl)(phenyl)(1H-pyrazol-1yl)methyl)phenyl)propyl)triphenylphosphonium iodide]
